Literature values, collected in patent US20210319872A1, “DRUG AND DEVICE COMBINATION PRODUCTS WITH IMPROVED SAFETY AND EFFICACY PROFILES” (priority 2016, published 2021).
Where two headings read alike, the source gives them in different places.

Compound: Cl.O=C1[C@@H]2[C@H]3CC[C@H](C3)[C@@H]2C(=O)N1C[C@@H]1CCCC[C@H]1CN1CCN(c2nsc3ccccc23)CC1 [Latuda]
- Akathisia (in vivo): Neurologic: Akathisia (5.6% to 22%), Extrapyramidal disease
- Anxiety (in vivo): Psychiatric: Anxiety (4% to 5%)
- Cerebrovascular accident (in vivo): Neurologic: Cerebrovascular accident (0.1% to 1%), Seizure (less
- Diarrhea (in vivo): Gastrointestinal: Diarrhea (3% to 5%), Nausea (10% to 17%),
- Nausea (in vivo): Gastrointestinal: Diarrhea (3% to 5%), Nausea (10% to 17%),
- Orthostatic hypotension (in vivo): Cardiovascular: Orthostatic hypotension (0.3% to 2.1%), Syncope
- Serious side effect, Hematologic (in vivo): Hematologic: Agranulocytosis
- Serious side effect, Other (in vivo): Other: Neuroleptic malignant syndrome
- Serum creatinine raised (in vivo): Renal: Serum creatinine raised (2% to 4%)
- Suicidal thoughts (in vivo): Psychiatric: Suicidal thoughts (0.4% to 1.1%)
- Syncope (in vivo): (0.1%)
- Vomiting (in vivo): Vomiting (2% to 8%)

Compound: Nc1cc(N2CCCCC2)nc(N)[n+]1[O-] [Minoxidil]
- Body fluid retention (incidence) (in vivo): Endocrine metabolic: Body fluid retention (7%), Hypernatremia
- Electrocardiogram abnormal (incidence) (in vivo): abnormal (60%), Pericardial effusion (3%), Pericarditis,
- Pericardial effusion (incidence) (in vivo): abnormal (60%), Pericardial effusion (3%), Pericarditis,

Compound: CCOC(=O)C1=C(C)NC(C)=C(C(=O)OC)C1c1cccc(Cl)c1Cl (centres unmarked) [Felodipine (Plendil)]
- Flushing (in vivo): Dermatologic: Flushing (3.9% to 6.9%)
- Headache (in vivo): Neurologic: Headache (10.6% to 14.7%)
- Hypotension (in vivo): Cardiovascular: Angina, Hypotension (less than 0.5%), Myocardial
- Indigestion (in vivo): Gastrointestinal: Indigestion (0.5% to 3.9%)
- Peripheral edema (in vivo): Cardiovascular: Peripheral edema (2% to 17.4%)
- Upper respiratory infection (in vivo): Respiratory: Upper respiratory infection (0.7% to 3.9%)

Compound: NC(=O)N1c2ccccc2C=Cc2ccccc21 [Equetro]
- Asthenia (in vivo): 8%
- Ataxia (in vivo): 15%
- Blurred vision (in vivo): 6%
- Constipation (in vivo): 10%
- Dizziness (in vivo): 44%
- Nausea (in vivo): 29%
- Pruritus (in vivo): 8%
- Rash (in vivo): 7%
- Vomiting (in vivo): 18%
- Xerostomia (in vivo): 8%
- Common side effect, Cardiovascular (listed without frequency): Cardiovascular: Hypotension
- Common side effect, Neurologic (listed without frequency): Somnolence
- Common side effect, Ophthalmic (listed without frequency): Nystagmus
- Serious side effect, Dermatologic (listed without frequency): Stevens-Johnson syndrome
- Serious side effect, Gastrointestinal (listed without frequency): Gastrointestinal: Pancreatitis
- Serious side effect, Immunologic (listed without frequency): Immunologic: Drug hypersensitivity syndrome
- Serious side effect, Neurologic (listed without frequency): Neurologic: Acute intermittent porphyria
- Serious side effect, Other (listed without frequency): Other: Angioedema
- Serious side effect, Respiratory (listed without frequency): Respiratory: Pulmonary hypersensitivity

Compound: COC(=O)C1=C(C)NC(C)=C(C(=O)OC)C1c1ccccc1[N+](=O)[O-] [Nifedipine (Adalat, Procardia)]
- Dizziness (in vivo): Neurologic: Dizziness (4% to 10%), Headache (19% to 23%)
- Flushing (in vivo): Dermatologic: Flushing (4% to 25%)
- Headache (in vivo): Neurologic: Dizziness (4% to 10%), Headache (19% to 23%)
- Hypotension (in vivo): Cardiovascular: Hypotension (up to 5%), Palpitations (up to 7%),
- Myocardial infarction (in vivo): Cardiovascular: Myocardial infarction (up to 4%), Ventricular
- Nausea (in vivo): Gastrointestinal: Nausea (up to 10%)
- Palpitations (in vivo): Cardiovascular: Hypotension (up to 5%), Palpitations (up to 7%),
- Peripheral edema (in vivo): Peripheral edema (7% to 29%)
- Ventricular arrhythmia (in vivo): arrhythmia (less than 0.5%)

Compound: CCCCc1ncc(/C=C(\Cc2cccs2)C(=O)O)n1Cc1ccc(C(=O)O)cc1 [Eprosartan (Teveten)]
- Dizziness (in vivo): Neurologic: Dizziness (3.8%)
- Fatigue (in vivo): Other: Fatigue (1.4%)
- Myalgia (in vivo): Musculoskeletal: Myalgia (1.9%)
- Neutropenia (in vivo): Hematologic: Neutropenia (1.3%)
- Serious side effects, listed without incidence or only as rare (in vivo): Dermatologic: Edema of face (rare)

Compound: N#Cc1ccc2[nH]cc(CCCCN3CCN(c4ccc5oc(C(N)=O)cc5c4)CC3)c2c1 [Viibryd]
- Serotonin syndrome (in vivo): 0.1%
- Serious side effect, Other (listed without frequency): Drug withdrawal

Compound: CN(CCOc1ccc(NS(C)(=O)=O)cc1)CCc1ccc(NS(C)(=O)=O)cc1 [Tikosyn]
- Chest pain (in vivo): Cardiovascular: Chest pain (10%)
- Dizziness (in vivo): Neurologic: Dizziness (8%), Headache (11%)
- Headache (in vivo): Neurologic: Dizziness (8%), Headache (11%)
- Heart block (in vivo): Cardiovascular: Heart block (up to 1.2%), Prolonged QT interval,
- Torsades de pointes (in vivo): Torsades de pointes (0.8%), Ventricular arrhythmia (up to 14.5%),
- Ventricular arrhythmia (in vivo): Torsades de pointes (0.8%), Ventricular arrhythmia (up to 14.5%),
- Ventricular tachycardia (in vivo): ≤ 12.4%)
- Serious side effect, Cardiovascular (listed without frequency): Cardiovascular: Heart block (up to 1.2%), Prolonged QT interval,

Compound: CC(C)NCC(O)COc1cccc2ccccc12 (centres unmarked) [Propranolol (Inderal)]
- Dizziness (in vivo): Neurologic: Dizziness (Hypertension, 4% to 7%), Sleep disorder
- Fatigue (in vivo): Other: Fatigue (5% to 7%)

Compound: CNCC[C@@H](Oc1ccccc1C)c1ccccc1 [Atomoxetine (Strattera)]
- Constipation (in vivo): 18%), Constipation (adult, 8%; pediatric, 1% to 2%), Decrease in
- Decrease in appetite (in vivo): appetite (adult, 16%; pediatric, 16%), Nausea (adult, 26%;
- Delay when starting to pass urine (in vivo): Renal: Delay when starting to pass urine (adult, 6%)
- Dysmenorrhea (in vivo): Reproductive: Dysmenorrhea (adult, 3%), Erectile dysfunction
- Erectile dysfunction (in vivo): (adult, 8%)
- Headache (in vivo): Neurologic: Headache (pediatric, 19%), Insomnia (adult, 15%;
- Increased systolic arterial pressure (in vivo): pressure (adult, 4.2% to 12.4%; pediatric, 4.9% to 12.5%),
- Menopausal flushing (in vivo): Other: Menopausal flushing (adult, 3%)
- Priapism (in vivo): Reproductive: Priapism (rare)
- Seizure (in vivo): 0.1%; pediatric, 0.2%)
- Serious side effect, Cardiovascular (in vivo): Cardiovascular: Myocardial infarction, Sudden cardiac death
- Serious side effect, Hepatic (in vivo): Hepatic: Injury of liver (Severe), Liver failure
- Serious side effect, Neurologic (in vivo): Neurologic: Cerebrovascular accident, Dyskinesia, Seizure (adult,
- Serious side effect, Psychiatric (in vivo): Psychiatric: Mania, Psychotic disorder, Suicidal thoughts
- Somnolence (in vivo): pediatric, at least 2%), Somnolence (adult, 8%; pediatric, 11%)
- Suicidal thoughts (in vivo): (pediatric, 0.4%)
- Tachycardia (in vivo): Tachycardia (adult, 1.5% to 22.4%; pediatric, 0.3% to 23.4%)
- Vomiting (in vivo): pediatric, 7% to 13%), Vomiting (adult, 4%; pediatric, 11%),
- Weight decreased (in vivo): Endocrine metabolic: Weight decreased (adults, 2%; pediatric, 3%
- Xerostomia (in vivo): Xerostomia (adult, 20%)

Compound: CCCN(CCC)CCc1cccc2c1CC(=O)N2 [Ropinirole (Requip)]
- Abdominal pain (in vivo): Gastrointestinal: Abdominal pain (6% to 7%), Constipation (4% to
- Constipation (in vivo): Gastrointestinal: Abdominal pain (6% to 7%), Constipation (4% to
- Dyskinesia (in vivo): syndrome, 11%), Dyskinesia (13% to 34%), Headache (6%),
- Fatigue (in vivo): Other: Fatigue (8% to 11%)
- Hallucinations (in vivo): Psychiatric: Hallucinations (5% to 10%)
- Headache (in vivo): syndrome, 11%), Dyskinesia (13% to 34%), Headache (6%),
- Hypotension (in vivo): Cardiovascular: Hypotension (2% to 25%), Orthostatic hypotension
- Nausea (in vivo): 5%), Nausea (11% to 60%), Vomiting (7% to 12%)
- Orthostatic hypotension (in vivo): (Up to 23%)
- Syncope (in vivo): disease, 1% to 12%; restless leg syndrome, 1%)
- Vomiting (in vivo): 5%), Nausea (11% to 60%), Vomiting (7% to 12%)

Compound: CCOC(=O)[C@H](CCc1ccccc1)N[C@@H](C)C(=O)N1Cc2ccccc2C[C@H]1C(=O)O [Quinapril (Accupril)]
- Chest pain (in vivo): Cardiovascular: Chest pain (2.4%), Hypotension (2.9%)
- Cough (in vivo): Respiratory: Cough (2% to 4.3%)
- Dizziness (in vivo): Neurologic: Dizziness (3.9% to 7.7%), Headache (1.7% to 6.9%)
- Fatigue (in vivo): Other: Fatigue (2.6%)
- Headache (in vivo): Neurologic: Dizziness (3.9% to 7.7%), Headache (1.7% to 6.9%)
- Hypotension (in vivo): Cardiovascular: Chest pain (2.4%), Hypotension (2.9%)
- Nausea and vomiting (in vivo): Gastrointestinal: Nausea and vomiting (1.4% to 2.4%)
- Serum blood urea nitrogen raised (in vivo): Renal: Serum blood urea nitrogen raised (2% to 8%), Serum
- Serum creatinine raised (in vivo): creatinine raised (2% to 11%)

Compound: CC[C@@H](C(N)=O)N1CCCC1=O [Levetiracetam (Keppra)]
- Asthenia (in vivo): Neurologic: Asthenia (15%), Dizziness (5% to 9%), Headache
- Cough (in vivo): Respiratory: Cough (2% to 9%), Nasopharyngitis (7% to 15%)
- Decreased bone mineral density (in vivo): Musculoskeletal: Decreased bone mineral density (70%), Neck pain
- Decreased white blood cell count (in vivo): blood cell count (2.4% to 3.2%), Eosinophilia (8.6%), Neutropenia
- Dizziness (in vivo): Neurologic: Asthenia (15%), Dizziness (5% to 9%), Headache
- Eosinophilia (in vivo): blood cell count (2.4% to 3.2%), Eosinophilia (8.6%), Neutropenia
- Fatigue (in vivo): Other: Fatigue (10% to 11%)
- Headache (in vivo): (14% to 19%)
- Infectious disease (in vivo): Immunologic: Infectious disease (13%)
- Nasopharyngitis (in vivo): Respiratory: Cough (2% to 9%), Nasopharyngitis (7% to 15%)
- Neck pain (in vivo): (2% to 8%)
- Neutropenia (in vivo): (partial onset seizures, adults, 2.4%), Pancytopenia,
- Somnolence (in vivo): Neurologic: Somnolence (8% to 45%)
- Suicidal intent (in vivo): Psychiatric: Suicidal intent (0.5%), Suicide
- Vomiting (in vivo): Gastrointestinal: Loss of appetite (3% to 8%), Vomiting (15%)

Compound: COC(=O)C(c1ccccc1)C1CCCCN1 (centres unmarked) [Methylphenidate]
- Aggressive behavior (in vivo): Psychiatric: Aggressive behavior (Adult, 1.7%), Mania, Psychotic
- Decrease in appetite (in vivo): appetite (Adult, 25.3%; pediatric, 2% to 9% or greater), Loss of
- Diaphoresis (in vivo): Dermatologic: Diaphoresis (Adult, 5.1%)
- Dizziness (in vivo): Neurologic: Dizziness (Adult, 6.7%; pediatric, 1.9%.), Headache
- Headache (in vivo): (Adult, 22.2%; pediatric, up to 12%), Insomnia (Adult, 12.3%;
- Irritability (in vivo): 3.9%), Irritability (Adult, 5.8%)
- Nausea (in vivo): (Adult, 12.8%), Vomiting (2% or greater), Xerostomia (Adult,
- Serious side effect, Endocrine metabolic (in vivo): Endocrine metabolic: Decreased body growth
- Serious side effect, Gastrointestinal (in vivo): Gastrointestinal: Gastrointestinal obstruction, with preexisting
- Serious side effect, Hepatic (in vivo): Hepatic: Abnormal liver function
- Serious side effect, Psychiatric (in vivo): Psychiatric: Aggressive behavior (Adult, 1.7%), Mania, Psychotic
- Serious side effect, Reproductive (in vivo): Reproductive: Priapism
- Tachycardia (in vivo): Cardiovascular: Tachycardia (Adult, 4.8%)
- Vomiting (in vivo): (Adult, 12.8%), Vomiting (2% or greater), Xerostomia (Adult,
- Weight decreased (in vivo): Endocrine metabolic: Weight decreased (Adult, 6.5%)
- Xerostomia (in vivo): 14%)
